Here are results for 21 compounds from US20100022531A1, “NOVEL COMPOUNDS AS P2X7 MODULATORS AND USES THEREOF” (RENOVIS, INC., priority 2005, published 2010).

One experiment addresses T1, P2X7 receptor (Homo sapiens, UniProt Q99572).
T1 construct: host or cells: THP-1 cells differentiated with LPS and IFN-γ
T1 sequence (Q99572 1-595): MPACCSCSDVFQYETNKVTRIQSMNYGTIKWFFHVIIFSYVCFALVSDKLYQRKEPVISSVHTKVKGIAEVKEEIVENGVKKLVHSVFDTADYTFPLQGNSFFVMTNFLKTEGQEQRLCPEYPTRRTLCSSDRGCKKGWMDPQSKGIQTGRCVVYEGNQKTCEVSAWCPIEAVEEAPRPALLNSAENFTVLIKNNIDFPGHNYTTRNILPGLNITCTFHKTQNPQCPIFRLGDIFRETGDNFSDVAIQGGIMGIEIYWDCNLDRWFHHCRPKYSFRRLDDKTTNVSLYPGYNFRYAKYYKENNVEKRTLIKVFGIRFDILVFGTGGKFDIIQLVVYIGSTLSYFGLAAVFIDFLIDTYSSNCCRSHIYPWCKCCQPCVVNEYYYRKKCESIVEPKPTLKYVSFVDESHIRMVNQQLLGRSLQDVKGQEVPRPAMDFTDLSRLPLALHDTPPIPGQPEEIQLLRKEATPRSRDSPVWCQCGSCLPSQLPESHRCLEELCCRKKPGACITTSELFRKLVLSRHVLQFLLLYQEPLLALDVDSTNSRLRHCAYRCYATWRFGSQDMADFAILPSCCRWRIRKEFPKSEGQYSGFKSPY
The experiment is described as follows: Alternate method for IL-1β release assay (differentiated THP-1 cells, BzATP-stimulated, ELISA). The class given is cell-based. The settings on record: P2X7; 0.1 μM compound (symbols + to ++++); read-out: IL-1β % inhib @ 0.1 μM. The essentials:
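After 16 h differentiation with 100 ng/mL LPS and 100 ng/mL IFN-γ plus a further 2 h LPS priming, THP-1 cells were pretreated 30 min with compound, then stimulated with 250 uM BzATP (final) for 45 min. Supernatant IL-1β measured by ELISA; percent inhibition from background-adjusted levels versus untreated cells.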
For `O=C(COc1cccc(Cl)c1)N1CCc2c(ncnc2NCC23CC4CC(CC(C4)C2)C3)C1` [Compound 248, 1-{4-[(Adamantan-1-ylmethyl)-amino]-5,8-dihydro-6H-pyrido[3,4-d]pyrimidin-7-yl}-2-(3-chloro-phenoxy)-ethanone], the inhibition at 0.1 µM was above 75%.

For `O=C(C1CCOC1)N1CCc2c(ncnc2NCC23CC4CC(CC(C4)C2)C3)C1` (stereo not drawn) [Compound 249, {4-[(Adamantan-1-ylmethyl)-amino]-5,8-dihydro-6H-pyrido[3,4-d]pyrimidin-7-yl}-(tetrahydro-furan-3-yl)-methanone], the inhibition at 0.1 µM fell in the range of 0 to 25%.

Take `O=C(O[C@@H]1CCOC1)N1CCc2c(ncnc2NCC23CC4CC(CC(C4)C2)C3)C1` [Compound 250, 4-[(Adamantan-1-ylmethyl)-amino]-5,8-dihydro-6H-pyrido[3,4-d]pyrimidine-7-carboxylic acid (R)-(tetrahydro-furan-3-yl)ester]: the inhibition at 0.1 µM is 0 to 25%.

Consider `O=C(COc1ccc(OC(F)(F)F)cc1)N1CCc2c(ncnc2NCC23CC4CC(CC(C4)C2)C3)C1` [Compound 251, 1-{4-[(Adamantan-1-ylmethyl)-amino]-5,8-dihydro-6H-pyrido[3,4-d]pyrimidin-7-yl}-2-(4-trifluoromethoxy-phenoxy)-ethanone], for which the inhibition at 0.1 µM was in the range of 0 to 25%.

Take `FC12CC3CC(C1)CC(CNc1ncnc4c1CCN(Cc1ccccc1)C4)(C3)C2` [Compound 252]: the inhibition at 0.1 µM is above 75%.

Consider `O=C(c1cccnc1)N1CCc2c(ncnc2NCC23CC4CC(CC(C4)C2)C3)C1` [Compound 257, 4-[(Adamantan-1-ylmethyl)-amino]-5,8-dihydro-6H-pyrido[3,4-d]pyrimidin-7-yl-pyridin-3-yl-methanone], for which the inhibition at 0.1 µM was above 75%.

For the compound `CN(CC(=O)N1CCc2c(ncnc2NCC23CC4CC(CC(C4)C2)C3)C1)Cc1ccccc1` [Compound 260], the inhibition at 0.1 µM was above 75%.

The experiment is the same for the next values; noted with them: P2X7; 0.3 μM compound (symbols * to ****); read-out: IL-1β % inhib @ 0.3 μM.
As for `CCOc1cccc(CN2CCc3c(ncnc3NCC34CC5CC(CC(C5)C3)C4)C2)c1` [Compound 236], the inhibition at 0.3 µM was in the range of 50 to 75%.

On to `FC1(F)Oc2ccc(CN3CCc4c(ncnc4NCC45CC6CC(CC(C6)C4)C5)C3)cc2O1` [Compound 238], for which the inhibition at 0.3 µM is 0 to 25%.

In the case of `COc1ccc(F)c(CN2CCc3c(ncnc3NCC34CC5CC(CC(C5)C3)C4)C2)c1` [Compound 239], the inhibition at 0.3 µM lay within 0 to 25%.

On to `COc1cc(CN2CCc3c(ncnc3NCC34CC5CC(CC(C5)C3)C4)C2)ccc1F` [Compound 240], for which the inhibition at 0.3 µM is above 75%.

For the compound `CCOc1ccc(CN2CCc3c(ncnc3NCC34CC5CC(CC(C5)C3)C4)C2)cc1` [Compound 241], the inhibition at 0.3 µM was above 75%.

Regarding `COc1ccc(OC)c(CN2CCc3c(ncnc3NCC34CC5CC(CC(C5)C3)C4)C2)c1` [Compound 242], the inhibition at 0.3 µM was above 75%.

For the compound `FC(F)(F)Oc1cccc(CN2CCc3c(ncnc3NCC34CC5CC(CC(C5)C3)C4)C2)c1` [Compound 243], the inhibition at 0.3 µM was above 75%.

`COc1cc(CN2CCc3c(ncnc3NCC34CC5CC(CC(C5)C3)C4)C2)cc(OC)c1` [Compound 244]: the inhibition at 0.3 µM is above 75%.

As for `Clc1ccc(CN2CCc3c(ncnc3NCC34CC5CC(CC(C5)C3)C4)C2)cn1` [Compound 245], the inhibition at 0.3 µM was above 75%.

Consider `Fc1cc(Cl)ccc1CN1CCc2c(ncnc2NCC23CC4CC(CC(C4)C2)C3)C1` [Compound 246], for which the inhibition at 0.3 µM is above 75%.

For the compound `CC12CC3(C)CC(C)(C1)CC(CNc1ncnc4c1CCN(Cc1ccccc1)C4)(C2)C3` [Compound 247], the inhibition at 0.3 µM lay in the range of 25 to 50%.

On to `O=C(c1cnn(-c2ccccc2)c1C(F)(F)F)N1CCc2c(ncnc2NCC23CC4CC(CC(C4)C2)C3)C1` [Compound 255], for which the inhibition at 0.3 µM was above 75%.

For the compound `CN(C)CCN1CCN(CC(=O)N2CCc3c(ncnc3NCC34CC5CC(CC(C5)C3)C4)C2)CC1` [Compound 258], the inhibition at 0.3 µM was 0 to 25%.

For the compound `O=C(CN1CCN(c2ccccc2)CC1)N1CCc2c(ncnc2NCC23CC4CC(CC(C4)C2)C3)C1` [Compound 259], the inhibition at 0.3 µM is 50 to 75%.
